The source of these data is patent publication US11311518B1, “Parenteral dosage form of β3 adrenoreceptor agonists” (Jubilant Pharma Holdings Inc., priority 2021, dated 2022).

As a reminder, the solubility is the dissolved amount per volume that the medium holds.

Data set [1] concerns biomarkers such as uncoupling protein 1 (UCP1), PGC-1α in iWAT (Inguinal white adipose tissue). Kind of data set: Biomarker expression in iWAT after localized microinjections of the injection formulations. The class given is in vivo, C57BL/6 mice. As to conditions: dose up to 1 mg per animal; single and multiple localized microinjections in iWAT; indicates marked thermogenesis. How it is done:
In certain non-limiting embodiments, the injection formulations were evaluated to determine the effect of mirabegron in animals (such as C57BL/6 mice etc.). The purpose of this study was to determine the effect of mirabegron on modulation in biomarkers such as uncoupling protein 1 (UCP1), Peroxisome proliferator-activated receptor-gamma coactivator-1alpha (PGC-1α) and others in this category to check pharmacokinetics after single and multiple localized microinjections in iWAT (Inguinal white adipose tissue). […]

Data set [2] can be described thus: Solubility of the API in various solvent systems (saturation solubility studies). The class given is physicochemical. The source says: In developing the parenteral formulation of mirabegron, the present inventors conducted extensive research and experiments. The solubility of API was studied in various solvent systems. For formulating immediate release injectable formulations, the solubility of the drug plays an important role as the final parenteral formulation has to be essentially a clear solution. […] Further, the inventors of the present invention were able to achieve maximum API solubility based on series of saturation solubility studies performed. […] The assessment of the successful development and stability of the solutions has been made on basis of the appearance of the solutions, the pH-value, osmolality, impurities content, and stability. The prepared formulations were found acceptable on these parameters.

The conditions of data set [3]: background statement; cited from earlier work.

SMILES strings stand for the structures. In brackets after ≈: the same amount, converted by molar mass. A value given as a limit tells only on which side of the number the result lay.

For `Nc1nc(CC(=O)Nc2ccc(CCNC[C@H](O)c3ccccc3)cc2)cs1` [Mirabegron, (R)-2-(2-aminothiazol-4-yl)-4′-{2-[(2-hydroxy-2 phenylethyl)amino]ethyl}acetanilide], in data set [1], the “Expression of biomarkers in iWAT” value is given as “statistically significant increase”. In addition, the “Solubility of API in Acetate buffer” value in data set [2] (Acetate buffer having pH 4.5, saturation solubility studies) is “maximum solubility”. Moreover, the “Drug solubility with co-solvent” value in data set [2] (co-solvent (such as propylene glycol) with or without heating) was “failed to achieve desired drug solubility”. Moreover, in data set [2] (pH close to 3.0), the “Solubility of API when pH is adjusted to the acidic side” value is “soluble”. Also, the solubility is at most 100000 µg/mL in data set [2] (solution with pH adjusted to the acidic side, pH 3, aqueous buffer, after pH adjusted to the acidic side) and about 100 µg/mL (≈ 252 µM) in data set [2] (water, starting value, before pH adjustment). Besides, the “Solubility of API in water” value in data set [2] (water) was “practically insoluble”. Also, in data set [3], the Solubility in water result is reported as “practically insoluble”.
